The source of these data is US20260256909A1, “COMBINATION OF A BTN3A ACTIVATING ANTIBODY, A BCL2 INHIBITOR AND HYPOMETHYLATING AGENT FOR USE IN TREATING CANCER” (Imcheck Therapeutics, priority 2022, published 2026).

Holding throughout (format): cell-based, human
Assay [1] deals with Vγ9Vδ2 T cells. In words: Proliferation of Vγ9Vδ2 T cells in HD-PBMC (CellTrace Violet). Conditions: day 4, ICT01 1 μg/mL; for ICT01 and IL2-induced proliferation of Vγ9Vδ2 T cells: 50 IU/mL IL2; for increase of ICT01-induced proliferation of Vγ9Vδ2 T cells: absence of IL2. The protocol:
Finally, freshly isolated human PBMC from healthy donors (HD, n=6) were labeled with CellTrace Violet stain (CTV, Invitrogen) to determine cell proliferation upon treatment with ICT01 or its isotype control (hIgG1S) used at 1 μg/mL in the presence or absence of increasing concentrations of Venetoclax (0-0.1 μM), 5-Azacytidine (0-0.4 μM) or the combination in PBMC medium (RPMI 1640 Medium supplemented with 10% FBS, 1% Penicillin/Streptomycin and 1 mM Sodium Pyruvate). Half of the cells were additionally treated with 50 IU/mL IL2. Cells were harvested on day 4, centrifuged at 1800 rpm for 5 minutes and then incubated 10 minutes at RT with 25 μl of FcR blocking reagent (Miltenyi Biotec) before adding 25 μL of the following antibody mix prepared in PBS+2% FBS+2 mM EDTA (FACS buffer): anti-CD4-BV650, CD56-FITC, Vδ2-PE, CD3-PE-CF594 and CD8-A700 antibodies for the identification of immune subsets, and a viability marker (LIVE/DEAD™ Fixable Dead Cell Stain) was added to distinguish live from dead cells. Cells were incubated 20 minutes at 4° C. and washed 2 times in FACS buffer before flow cytometry analysis.

The subject of assay [2] is JVM-2 (Chronic B-cell leukemia). In words: Killing of JVM-2 cells in co-culture with HD-PBMC (flow cytometry). Conditions: co-culture with HD-PBMC ratio 5:1, 48 hrs. How it is done:
(§1) Raji cells (Burkitt Lymphoma) or JVM2 cells (Chronic-B cell Leukemia) were co-cultured with HD-PBMC at ratio 5:1 in presence of ICT01 or isotype control (0.1 μg/mL or 1 μg/mL). After 6 hrs, indicated concentrations of Venetoclax, 5-Azacytidine or the combination were added to the culture. Relative numbers of live Raji (A) or JVM2 (B) were monitored after 48 hrs by flow cytometry. […] N=6, each dot represents one healthy donor, * p<0.05, ** p<0.01, 2 way ANOVA.
(§2) The effect of Venetoclax and 5-Azacytidine on BTN3A activating antibody-induced killing of Burkitt Lymphoma and Chronic-B-cell leukemia cell lines by Vγ9Vδ2 T cells was assessed by measuring the relative number of surviving target cells in a HD-PBMC-Target cell co-culture using flow cytometry.
(Flow cytometry measures light scatter and fluorescence of single cells or particles in a stream.)

Assay [3] deals with Raji (Burkitts Lymphoma). In words: Killing of Raji cells in co-culture with HD-PBMC (flow cytometry). Conditions: co-culture with HD-PBMC ratio 5:1, 48 hrs. How it is done: as §1, §2
Assay [4] concerns MOLM14 cells. In words: Killing of MOLM14 AML cells in co-culture with HD-PBMC (flow cytometry). Conditions: ICT01 0.1 μg/mL, HD-PBMC ratio 5:1, 2 days. The protocol:
KG1a or MOLM14 AML cell lines were co-cultured with HD-PBMC at ratio 5:1 in presence of ICT01 or isotype control (0.1 μg/mL). After 6 hrs, indicated concentrations of ABT-737, Navitoclax or MIK665 were added to the culture. A) Relative numbers of live KG1a cells (Mean±SEM) after 2 days of co-culture with HD-PBMC in presence of ICT01 (black) or its isotype control hIgG1S (light grey) and treatment with indicated concentration of ABT-737. B) Relative numbers of live KG1a cells (Mean±SEM) after 2 days of co-culture with HD-PBMC in presence of ICT01 (black) or its isotype control hIgG1S (light grey) and treatment with indicated concentration of Navitoclax. C) Relative numbers of live MOLM14 cells (Mean±SEM) after 2 days of co-culture with HD-PBMC in presence of ICT01 (black) or its isotype control hIgG1S (light grey) and treatment with indicated concentration of MIK665. N=6 HD, each dot represents one healthy donor, * p<0.05, 2 way ANOVA.
The effect of the three Bcl-2 family member inhibitors ABT-737, Navitoclax and MIK665, on ICT01-induced killing of AML cell lines by Vγ9Vδ2 T cells was assessed by measuring the relative number of surviving target cells in a HD-PBMC-AML cells co-culture using flow cytometry.
For assays using ABT-737 or Navitoclax, KG1a cells were used. […] Therefore, MOLM14 cells, which express MCL-1, were used in killing assays assessing the activity of ICT01 combined with MIK665.

Turning to `Nc1ncn([C@@H]2O[C@H](CO)[C@@H](O)[C@H]2O)c(=O)n1` [5-Azacytidine, 4-amino-1-[(2R,3R,4S,5R)3,4-dihydroxy-5-(hydroxymethyl)oxolan-2-yl]-1,3,5-triazin-2-one], in assay [1], the “ICT01 and IL2-induced proliferation of Vγ9Vδ2 T cells” value is on record as “unaffected”; the “increase of ICT01-induced proliferation of Vγ9Vδ2 T cells” value was “not observed”.

For `CC1(C)CCC(CN2CCN(c3ccc(C(=O)NS(=O)(=O)c4ccc(NCC5CCOCC5)c([N+](=O)[O-])c4)c(Oc4cnc5[nH]ccc5c4)c3)CC2)=C(c2ccc(Cl)cc2)C1` [Venetoclax, 4-[4-[[2-(4-chlorophenyl)-4,4-dimethylcyclohexen-1-yl]methyl]piperazin-1-yl]-N-[3-nitro-4-(oxan-4-ylmethylamino)phenyl]sulfonyl-2-(1H-pyrrolo[2,3-b]pyridin-5-yloxy)benzamide], in assay [1], the “ICT01 and IL2-induced proliferation of Vγ9Vδ2 T cells” value is “unaffected”; the “increase of ICT01-induced proliferation of Vγ9Vδ2 T cells” value is reported as ~ 10%.

In the case of “ICT01: humanized BTN3A activating antibody of mAb 7.2, heavy chain SEQ ID NO: 4, light chain SEQ ID NO: 6, silent IgG1 L247F/L248E/P350S”, the “decrease of live JVM-2 cells as compared to hIgG1S alone condition (control)” value in assay [2] is ~ 16%. In addition, in assay [3], the “decrease of live Raji cells as compared to hIgG1S alone condition (control)” value is ~ 22%. Also, in assay [4], the “MOLM14 cell death as compared to control condition” value is ~ 56%.
